Publication PMC6352937, “Inhibition of protein phosphatase-1 and -2A by ellagitannins: structure-inhibitory potency relationships and influences on cellular systems” (Journal of Enzyme Inhibition and Medicinal Chemistry, 2019)

Legend:
PP1c = test: Protein phosphatase assay with 32P-MLC20, native PP1c; format: biochemical; settings: native PP1c from rabbit skeletal muscle; 1 µM 32P-MLC20; 10 min preincubation; mean ± SD
Protocol: (§1) Protein phosphatase activity of either skeletal muscle PP1c or PP2Ac (1.9–2.2 nM), or rPP1cα or rPP1cδ (2.71–3.72 nM), or FLAG-MYPT1-PP1c (∼9 nM) was assayed at 30 °C in absence or presence of polyphenol compounds (0.1–100 µM) in 20 mM Tris/HCl (pH 7.4), 0.1% 2-mercaptoethanol (30 µL). The purified phosphatase samples or HeLa lysates in 300-fold dilution (1.8–3.6 µg/ml) in the presence or absence of 2 µM I2 were preincubated with increasing concentration of the polyphenol compounds (0–100 µM) for 10 min then the reaction was started by the addition of 1 µM ^32P-MLC20 and incubated for 10 min. Polyphenol-treated HeLa cells were washed then lysed in 50 mM Tris/HCl (pH 8.0), 150 mM NaCl, 1% (V/V) Triton X-100, 0.15% (w/v) protease inhibitor cocktail. The phosphatase activity was assayed with 1 µM ^32P-MLC20 for 30 s in 3-fold final dilution (0.24–0.43 mg/ml). The reactions were terminated by the addition of 200 µL of 10% trichloroacetic acid and 200 µL of 6 mg/mL BSA solution. The samples were centrifuged for 3 min at 10,000 rpm and the supernatants (370 µL) were transferred into scintillation vials and the radioactivity of the released ^32Pi was determined in Tri-Carb 2800TR scintillation counter.
(§2) The ellagitannins (Figure 1) assayed on the activity of PP1c or PP2Ac in this study are similar to PGG in composition, but they differ structurally in two important aspects: (i) all of them include hexahydroxydiphenoyl unit linked in various positions, except for pedunculagin which includes two of these linkages; (ii) tellimagrandin I, pedunculagin, and praecoxin B have free glycosidic hydroxyls, while GHG has an unmodified hydroxyl at position 3 of the glucopyranose ring. […] Inhibition of the phosphatase activity by ellagitannins in HeLa cell lysate was also assessed. First, we determined the activity of PP1 and PP2A in the lysates using I2 to inhibit PP1, and low concentration of OA (2 nM) to suppress PP2A specifically, in order to determine the contribution of PP1 and PP2A to the phosphatase activity of lysates (Figure 2(E)).
(§3) Figure 2. The effect of ellagitannins on the activity of PP1 and PP2A. Ellagitannins (0.1–100 µM) were preincubated with the phosphatase samples for 10 min and the phosphatase activity was determined in triplicates with 1 µM ^32P-MLC20 substrate as described in “Materials and methods” section. […] The effect of tellimagrandin I on the activity of rPP1cα (^) and rPP1cδ (●) (C), or FLAG-MYPT1-PP1cδ (▼) (D), or on the phosphatase activity of HeLa lysate in the presence of I2 (□) (F). The effect of I2 and OA on the phosphatase activity of HeLa lysate (E). Phosphatase activity in the absence of ellagitannins, I2 or OA was taken as 100%. Data are means ± SD (n = 3–5).

HeLa lysate = test: Phosphatase activity of HeLa cell lysate (32P-MLC20); format: biochemical, human; settings: HeLa lysate in 300-fold dilution; 1 µM 32P-MLC20; mean ± SD
Protocol: as §1, §2, §3

PP2Ac = test: Protein phosphatase assay with 32P-MLC20, native PP2Ac; format: biochemical; settings: native PP2Ac from rabbit skeletal muscle; 1 µM 32P-MLC20; 10 min preincubation; mean ± SD
Protocol: as §1, §2, §3

rPP1cα = target: T1, rPP1cα (Homo sapiens, UniProt P62136); test: Microscale thermophoresis (MST); format: binding; settings: unlabelled rPP1cα, intrinsic fluorescence (NT.LabelFree)
T1 construct: FLAG; made in house
Protocol: Figure 3. […] The changes in either, the intrinsic fluorescence of unlabelled rPP1cα upon binding to tellimagrandin I and PGG, or changes in fluorescent signal from rPP1cα extrinsically labelled with NT647 dye upon binding with EGCG, were determined at a range of concentration of polyphenols, and the fractions bound are presented. Data points are means ± SD (n = 3).

HeLa cells [1] = test: HeLa cell viability, Alamar-blue assay; format: cell-based, human; settings: 24 h incubation, serum free; 0-50 µM tested
Protocol: HeLa cells and tsa201 cells were cultured as recommended by the supplier. Prior to treatments HeLa cells were serum starved in MEM medium supplemented with 2 mM L-glutamine for 17 h. For phosphatase activity assay cells were treated with increasing concentration of polyphenol compounds (1–50 µM) for 1 h. To assess cell viability by Alamar-blue assay serum starved cells were treated with ellagitannins (1–50 µM) for 24 h in serum free MEM medium. The media was exchanged for resazurin (20 µM) containing serum free media and the cells were incubated for 2 h to enhance resorufin formation by the viable cells. The emission of resorufin was measured by a fluorimeter at 620 nm.
Figure 4. Distinct influence of ellagitannins on the survival and phosphatase activity of HeLa cells. The effect of tellimagrandin I and mahtabin A was assayed on the survival (A) and the phosphatase activity (B) of HeLa cells in 0–50 µM concentration range as detailed in Materials and methods. The cell survival and the phosphatase activity in the absence of ellagitannins were taken as 100%. Data represent means ± SD (n = 3). ANOVA *p < .05, **p < .01, ***p < .001, n.s.: not significant.

SNAP-25^Thr138 = test: Phosphorylation of SNAP-25 Thr138 in cortical synaptosomes (Western blot); format: cell-based, mouse; settings: synaptosomes treated 45 min at 30 °C; ellagitannins 1-100 µM, TMC 10 µM
Protocol: (§4) Preparation of synaptosomes from murine brain cortex was carried out as described previously. Functional synaptosomes were kept in Krebs buffer (118 mM NaCl, 5 mM KCl, 25 mM NaHCO3, 1 mM MgCl2, 10 mM D-glucose, pH 7.4). After preparation, synaptosomes were treated with either tellimagrandin I or mahtabin A in 1, 10 or 100 µM final concentrations, or with 10 µM tautomycetin (TMC) for 45 min at 30 °C. After the treatments synaptosomes were applied for exocytosis assay or were lysed and the protein lysates were subjected to Western blot. For exocytosis assay an already established protocol[25] was used. FM 2–10 water-soluble styryl dye was incorporated first into the outer leaflet of synaptosome membrane, then into the synaptosomes. Exocytosis was induced by addition of 30 mM KCl to the synaptosomes. The fluorescent intensity of FM 2–10 styryl dye negatively correlated with the extent of synatposomal exocytosis and was measured by Fluoroskan FL (excitation: 488 nm, emission: 540 nm). Western blot of synaptosome proteins was carried out as described previously[24]^,[25].
Figure 5. […] E: Representative Western blot with anti- SNAP-25^pThr138 specific antibody. F: Relative changes in the amount of SNAP-25^pThr138 determined by densitometry of the Western blots normalised on the bands obtained for the loading controls. Data are means ± SD (n = 3). ANOVA *p < .05, **p < .01, ***p < .001, n.s.: not significant.

[2] = test system: mouse cortical synaptosomes; test: KCl induced exocytosis of cortical synaptosomes (FM 2-10 dye); format: cell-based; settings: 30 mM KCl; FM 2-10 fluorescence; 45 min treatment
Protocol: as §4
Figure 5. […] E: Representative Western blot with anti- SNAP-25^pThr138 specific antibody. F: Relative changes in the amount of SNAP-25^pThr138 determined by densitometry of the Western blots normalised on the bands obtained for the loading controls. Data are means ± SD (n = 3). […]

HeLa cells [3] = test: Phosphatase activity of polyphenol-treated HeLa cells; format: cell-based, human; settings: 1 h incubation; 0-50 µM tested
Protocol: as §1
HeLa cells and tsa201 cells were cultured as recommended by the supplier. […] The emission of resorufin was measured by a fluorimeter at 620 nm. […]

T1 sequence (P62136 whole entry): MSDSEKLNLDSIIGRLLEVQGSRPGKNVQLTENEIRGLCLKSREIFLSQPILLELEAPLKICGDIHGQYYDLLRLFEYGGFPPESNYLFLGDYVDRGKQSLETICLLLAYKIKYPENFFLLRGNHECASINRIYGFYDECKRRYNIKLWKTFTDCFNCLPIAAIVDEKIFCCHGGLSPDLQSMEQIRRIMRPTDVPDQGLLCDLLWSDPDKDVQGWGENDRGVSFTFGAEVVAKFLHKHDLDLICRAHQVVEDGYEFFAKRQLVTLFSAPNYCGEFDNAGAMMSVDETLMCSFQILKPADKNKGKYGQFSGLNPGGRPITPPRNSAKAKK

IC50 (PP1c) | IC50 (HeLa lysate) | IC50 (PP2Ac) | SMILES | Kd (rPP1cα) | Effect on viability (survival) of HeLa cells (HeLa cells [1]) | Effect on phosphorylation level of SNAP-25^Thr138 (SNAP-25^Thr138) | Effect on KCl induced synaptosomal exocytosis [2] | Effect on phosphatase activity of HeLa cells (HeLa cells [3])
1.41 ± 0.3 µM | 13 ± 3.3 µM | > 100 µM | O=C(O[C@@H]1O[C@@H]2COC(=O)c3cc(O)c(O)c(O)c3-c3c(cc(O)c(O)c3O)C(=O)O[C@H]2[C@H](O)[C@H]1OC(=O)c1cc(O)c(O)c(O)c1)c1cc(O)c(O)c(O)c1 [GHG, 1,2-di-O-galloyl-4,6-(S)-hexahydroxydiphenoyl-β-D-glucose] |  |  |  |  | 
 |  |  | O=C(OC[C@H]1O[C@@H](OC(=O)c2cc(O)c(O)c(O)c2)[C@H](OC(=O)c2cc(O)c(O)c(O)c2)[C@@H](OC(=O)c2cc(O)c(O)c(O)c2)[C@@H]1OC(=O)c1cc(O)c(O)c(O)c1)c1cc(O)c(O)c(O)c1 [PGG, penta-O-galloyl-β-D-glucose] | 3.08 ± 0.35 µM |  |  |  | 
~2.47 µM | 33.9 ± 4.54 µM | > 100 µM | O=C1OC[C@H]2OC(O)[C@@H]3OC(=O)c4cc(O)c(O)c(O)c4-c4c(cc(O)c(O)c4O)C(=O)O[C@H]3[C@@H]2OC(=O)c2cc(O)c(O)c(O)c2-c2c1cc(O)c(O)c2O (some centres unmarked) [pedunculagin] |  |  |  |  | 

SMILES | IC50 (PP1c) | IC50 (HeLa lysate) | IC50 (PP2Ac) | Kd (rPP1cα) | Effect on viability (survival) of HeLa cells (HeLa cells [1]) | Effect on phosphorylation level of SNAP-25^Thr138 (SNAP-25^Thr138) | Effect on KCl induced synaptosomal exocytosis [2] | Effect on phosphatase activity of HeLa cells (HeLa cells [3])
O=C(OC[C@H]1O[C@@H](OC(=O)c2cc(O)c(O)c(O)c2)[C@@H]2OC(=O)c3cc(O)c(O)c(O)c3-c3c(cc(O)c(O)c3O)C(=O)O[C@H]2[C@@H]1OC(=O)c1cc(O)c(O)c(O)c1)c1cc(O)c(O)c(O)c1 [mahtabin A] | 0.41 ± 0.18 µM | 6.19 ± 0.37 µM | 33.8 ± 8.44 µM |  | without effect | increased the amount of phosphorylated SNAP-25^Thr138 | suppressed exocytosis | without effect
